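Test compounds were applied to cells in 96-well plates for 48 hours at 5 doses. GI50 marks 50% less growth.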 Calls of active or inactive are those of the source. Rule as the data show it: active = GI50 up to about 1.1 µM and inactive = higher.
Columns and labels:
Experiment in all cases: NCI tumour cell line growth inhibition, 48 h
HCT-15 = tested on: HCT-15
UACC-257 = tested on: UACC-257
DU-145 = tested on: DU-145
HT-29 = tested on: HT-29
Malme-3M = tested on: Malme-3M
UO-31 = tested on: UO-31
HOP-92 = tested on: HOP-92
TK-10 = tested on: TK-10
SW-620 = tested on: SW-620
SK-MEL-28 = tested on: SK-MEL-28
NCI-H522 = tested on: NCI-H522
NCI-H226 = tested on: NCI-H226
HCT-116 = tested on: HCT-116
SF-295 = tested on: SF-295
SF-539 = tested on: SF-539
HOP-62 = tested on: HOP-62
SK-MEL-2 = tested on: SK-MEL-2
NCI/ADR-RES = tested on: NCI/ADR-RES
LOX IMVI = tested on: LOX IMVI
SNB-75 = tested on: SNB-75

| SMILES | GI50 (HCT-15) [µM] | GI50 (UACC-257) | GI50 (DU-145) | GI50 (HT-29) | GI50 (Malme-3M) | GI50 (UO-31) | GI50 (HOP-92) | GI50 (TK-10) | GI50 (SW-620) | GI50 (SK-MEL-28) | GI50 (NCI-H522) | GI50 (NCI-H226) | GI50 (HCT-116) | GI50 (SF-295) | GI50 (SF-539) | GI50 (HOP-62) | GI50 (SK-MEL-2) | GI50 (NCI/ADR-RES) | GI50 (LOX IMVI) | GI50 (SNB-75) |
| --- | --- | --- | --- | --- | --- | --- | --- | --- | --- | --- | --- | --- | --- | --- | --- | --- | --- | --- | --- | --- |
| CCCCCCN(CCCCCC)CCC(=O)c1ccc2cc(Br)c3ccccc3c2c1 | 33.8 | 64.7 µM (inactive) | 52.2 µM (inactive) | 66.1 µM (inactive) | 89.1 µM (inactive) | 26.7 µM (inactive) | 19.4 µM (inactive) | 26.4 µM (inactive) | 43.7 µM (inactive) | 77.1 µM (inactive) | 25.5 µM (inactive) | 69.7 µM (inactive) | 78.3 µM (inactive) | 59 µM (inactive) | 21.3 µM (inactive) | 40.4 µM (inactive) | 27.3 µM (inactive) | 48.5 µM (inactive) | 32 µM (inactive) |  |
| CC(C)=NN/C(=N\c1ccc(Cl)cc1)NS(=O)(=O)c1ccc(Oc2cccc(Cl)c2C#N)cc1 | > 100 | > 100 µM (inactive) | > 100 µM (inactive) | > 100 µM (inactive) | > 100 µM (inactive) | > 100 µM (inactive) | > 100 µM (inactive) | > 100 µM (inactive) | > 100 µM (inactive) | > 100 µM (inactive) | > 100 µM (inactive) | > 100 µM (inactive) | > 100 µM (inactive) | > 100 µM (inactive) |  | > 100 µM (inactive) | > 100 µM (inactive) | > 100 µM (inactive) | > 100 µM (inactive) |  |
| COC(=O)C1(C)CCC(c2ccc(C)cc2)=C(CC(=O)O)C1 (stereo not drawn) | > 100 | > 100 µM (inactive) | > 100 µM (inactive) | > 100 µM (inactive) | > 100 µM (inactive) |  | > 100 µM (inactive) | > 100 µM (inactive) | > 100 µM (inactive) | > 100 µM (inactive) | > 100 µM (inactive) |  | > 100 µM (inactive) | > 100 µM (inactive) | > 100 µM (inactive) | > 100 µM (inactive) | > 100 µM (inactive) | > 100 µM (inactive) | > 100 µM (inactive) | > 100 µM (inactive) |
| COc1ccc(-c2cc(-c3ccccc3)[nH]c(=S)c2C#N)cc1 | 34.7 |  | 52.2 µM (inactive) | 36.1 µM (inactive) | 32.4 µM (inactive) | 20.6 µM (inactive) | 44.3 µM (inactive) | 76.7 µM (inactive) | 33 µM (inactive) | 20 µM (inactive) | 25.5 µM (inactive) | 31.4 µM (inactive) | 34.9 µM (inactive) | 27.4 µM (inactive) |  | 3.85 µM (inactive) |  | 39.1 µM (inactive) | 20.7 µM (inactive) | 31 µM (inactive) |
| CSc1ccc(C=C2N=C(c3ccccc3)N(c3cc(C(=O)c4ccccc4)ccc3N3C(=O)/C(=C/c4ccc(SC)cc4)N=C3c3ccccc3)C2=O)cc1 | 61.4 | 89.9 µM (inactive) | 49.9 µM (inactive) | 81.3 µM (inactive) |  | 48.4 µM (inactive) | 80.7 µM (inactive) | 51.1 µM (inactive) | > 100 µM (inactive) | > 100 µM (inactive) |  |  | 59.3 µM (inactive) | 44.1 µM (inactive) | 22.6 µM (inactive) | 79.8 µM (inactive) | 36.1 µM (inactive) | 46 µM (inactive) | 32.1 µM (inactive) | 16 µM (inactive) |
| COc1ccc(C2=Nn3c(nnc(Cc4ccc(Cl)cc4)c3=O)SC2)cc1 | 29 | 46.9 µM (inactive) | 59.3 µM (inactive) | 30.4 µM (inactive) | > 100 µM (inactive) | 52.1 µM (inactive) | > 100 µM (inactive) | > 100 µM (inactive) | 47.4 µM (inactive) | 74.6 µM (inactive) | 42.4 µM (inactive) | 94 µM (inactive) | 28.1 µM (inactive) | 34.3 µM (inactive) | 37.8 µM (inactive) | 62.1 µM (inactive) | 26.5 µM (inactive) | 19.8 µM (inactive) | 34.9 µM (inactive) |  |
| COc1ccc(-c2nc(N)c(C#N)c3c2CCS(=O)(=O)c2ccc(C)cc2-3)cc1OC | 16.1 | 22.6 µM (inactive) | 29 µM (inactive) | 30.1 µM (inactive) | 26.5 µM (inactive) | 30.8 µM (inactive) | 38.5 µM (inactive) | 56.1 µM (inactive) | 34.9 µM (inactive) | 55.2 µM (inactive) | 8.87 µM (inactive) | 77.1 µM (inactive) | 31.5 µM (inactive) |  |  | 33.2 µM (inactive) | 16.2 µM (inactive) | 43.7 µM (inactive) | 48.3 µM (inactive) | 23.7 µM (inactive) |
| CCN(CC)C(=S)SS(=O)(=O)c1ccc(Cl)cc1 | 31.3 | 24.2 µM (inactive) | 27.3 µM (inactive) | 17.8 µM (inactive) | 11.7 µM (inactive) | 17.7 µM (inactive) | 16.9 µM (inactive) | 67.8 µM (inactive) | 17.1 µM (inactive) | 17.9 µM (inactive) | 0.0319 µM (active) | 62.7 µM (inactive) | 30.3 µM (inactive) | 38.7 µM (inactive) | 21.6 µM (inactive) | 22.7 µM (inactive) | 65.6 µM (inactive) | 35.4 µM (inactive) | 15.4 µM (inactive) |  |
| CCOC(=O)c1cn(-c2ccc(Cl)cc2)c(=O)n2c1nc1ccccc12 | > 100 | > 100 µM (inactive) | > 100 µM (inactive) | 88.3 µM (inactive) |  | > 100 µM (inactive) | > 100 µM (inactive) |  | > 100 µM (inactive) | > 100 µM (inactive) |  | > 100 µM (inactive) | > 100 µM (inactive) | > 100 µM (inactive) | > 100 µM (inactive) | > 100 µM (inactive) | > 100 µM (inactive) | > 100 µM (inactive) | > 100 µM (inactive) | > 100 µM (inactive) |
| Cc1ccc(O)c(-c2cc(-c3cccc(Cl)c3)c(C#N)c(N)n2)c1 | 12.2 |  | 44.5 µM (inactive) | 25.8 µM (inactive) | 17.5 µM (inactive) | 18 µM (inactive) | 13.1 µM (inactive) | 18.1 µM (inactive) | 17.2 µM (inactive) |  | 12.5 µM (inactive) | 18.7 µM (inactive) | 16.2 µM (inactive) | 14.8 µM (inactive) | 19.5 µM (inactive) | 20.6 µM (inactive) | 13.2 µM (inactive) | 24.7 µM (inactive) | 16.7 µM (inactive) |  |
| CC(C)CCCC(C)[C@H]1CC[C@H]2n3c(nc4ccccc43)CCC[C@]12C (stereo partly drawn) | 15 | 20 µM (inactive) | 22 µM (inactive) | 8.79 µM (inactive) | 21.9 µM (inactive) | 14.3 µM (inactive) | 17.7 µM (inactive) | 17.4 µM (inactive) | 17.7 µM (inactive) | 18.6 µM (inactive) |  | 15.6 µM (inactive) | 12.9 µM (inactive) | 16.8 µM (inactive) | 18.8 µM (inactive) | 20.7 µM (inactive) | 17.2 µM (inactive) | 18.2 µM (inactive) | 32.7 µM (inactive) | 14.6 µM (inactive) |

— ChEMBL document CHEMBL1201862, “PubChem BioAssay data set” (2004)
